# Reference: US20200032249A1, “LABELING, ISOLATION, & ANALYSIS OF RNA FROM RARE CELL POPULATIONS” (priority 2017, published 2020)
# Test system: MDA-MB-231 cells
# Assay: co-culture of CD-expressing MDA231 cells with unlabeled control cells, anti-BrdU immunostaining
# Format: cell-based, human
# Details: CD only, without UPRT and thymine
# Description: FIG. 1a-f. Labeling and purification of RNA by CD expression and 5-FC treatment. FIG. 1a—Schematic diagram showing RNA labeling using CD and 5-FC. FIG. 1b—Chemical reactions steps involved in the labeling of RNA using CD and 5-FC. The dotted arrow indicates the intermediary steps that are not shown. FIG. 1c Relative fold enrichment of mRNA isolated by Flura-tagging. 293T cells expressing CD or unlabeled controls were treated with 5-FC for the indicated times, labeled mRNAs were immunopurified using anti-BrdU antibody, and the levels of labeled mRNAs of the indicated genes relative to corresponding non-immunoprecipitated inputs normalized to immunopurified mRNAs from cells not expressing CD were quantified by RT-PCR. […] FIG. 1d—Schematic diagram of the constructs used for inducible expression of UPRT and/or CD, and the experimental design. Transduced RFP+MDA231 cells were mixed with unlabeled cells, treated with doxycycline for 24 h and then 5-FC for 4-12 h. Cells were analyzed by immunofluorescence or harvested for RNA analysis. FIG. 1e—Flura-tagging in MDA231 cells in vitro. […] The fold enrichment of the indicated representative human genes over mouse housekeeping genes (mHPRT1 and mLDH1) was measured by RT-PCR (n=3±S.E.). […]
# Next, we determined whether 5-FU-labeled mRNAs can be specifically and efficiently isolated by immunoprecipitation. […]
smiles,measurement,value
"Nc1nc(=O)[nH]cc1F [5-FC, 5-fluorocytosine]",5-FU-labeling of neighboring cells not expressing CD,led to 5-FU-labeling of cells that did not express CD as well
